Molecules are shown by their SMILES.

For experiment [1], the target named is T1, VibO (Boreostereum vibrans, UniProt A0AA82WP17, F265Y).
T1 construct: full length, N-terminal His6 tag, expressed in E. coli BL21(DE3) (pET28a(+)); domains cover residues 1-653; dimer; copurified FAD
Put plainly: LC-MS peak area of product […]. To be noted: 6 0.5 mM, NADPH 0.1 mM, pH 7.5, 28 °C, 2 h; hydroxylation to 7. In kind it is biochemical.

The target of experiment [2] is T2, VibO (Boreostereum vibrans, UniProt A0AA82WP17, D99N).
T2 construct: full length, N-terminal His6 tag, expressed in E. coli BL21(DE3) (pET28a(+)); domains cover residues 1-653; dimer; copurified FAD
T2 sequence (A0AA82WP17 entry or part of it D99N): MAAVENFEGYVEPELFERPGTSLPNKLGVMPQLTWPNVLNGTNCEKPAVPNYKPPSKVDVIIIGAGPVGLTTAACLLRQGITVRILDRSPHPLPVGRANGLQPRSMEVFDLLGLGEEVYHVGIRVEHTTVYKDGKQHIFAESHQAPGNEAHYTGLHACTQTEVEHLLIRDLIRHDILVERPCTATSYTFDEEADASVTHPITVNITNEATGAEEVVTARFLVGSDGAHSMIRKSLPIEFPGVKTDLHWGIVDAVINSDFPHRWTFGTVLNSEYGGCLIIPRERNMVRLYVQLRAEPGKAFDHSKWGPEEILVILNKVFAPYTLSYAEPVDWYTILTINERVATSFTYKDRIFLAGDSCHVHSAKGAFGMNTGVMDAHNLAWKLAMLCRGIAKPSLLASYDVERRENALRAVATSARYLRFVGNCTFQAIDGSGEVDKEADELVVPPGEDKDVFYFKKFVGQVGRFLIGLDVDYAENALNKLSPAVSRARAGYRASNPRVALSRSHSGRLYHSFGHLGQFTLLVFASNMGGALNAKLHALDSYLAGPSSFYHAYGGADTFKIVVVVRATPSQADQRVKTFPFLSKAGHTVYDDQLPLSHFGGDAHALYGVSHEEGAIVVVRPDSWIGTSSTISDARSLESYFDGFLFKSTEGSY
Put plainly: LC-MS peak area of product […]. The experiment is classed as biochemical. To be noted: 6 0.5 mM, NADPH 0.1 mM, pH 7.5, 28 °C, 2 h; hydroxylation to 7.

Experiment [3] deals with T3, VibO (Boreostereum vibrans, UniProt A0AA82WP17, D99A).
T3 construct: full length, N-terminal His6 tag, expressed in E. coli BL21(DE3) (pET28a(+)); domains cover residues 1-653; dimer; copurified FAD
T3 sequence (A0AA82WP17 entry or part of it D99A): as the sequence (A0AA82WP17 entry or part of it D99N) above, with N99A counted along it
Put plainly: LC-MS peak area of product […]. In kind it is biochemical. To be noted: 6 0.5 mM, NADPH 0.1 mM, pH 7.5, 28 °C, 2 h; hydroxylation to 7.

The target in the next experiment is T4, PHHY (Cutaneotrichosporon cutaneum, UniProt P15245).
T4 construct: synthesized gene expressed in E. coli; FAD-dependent
T4 sequence (P15245 2-665): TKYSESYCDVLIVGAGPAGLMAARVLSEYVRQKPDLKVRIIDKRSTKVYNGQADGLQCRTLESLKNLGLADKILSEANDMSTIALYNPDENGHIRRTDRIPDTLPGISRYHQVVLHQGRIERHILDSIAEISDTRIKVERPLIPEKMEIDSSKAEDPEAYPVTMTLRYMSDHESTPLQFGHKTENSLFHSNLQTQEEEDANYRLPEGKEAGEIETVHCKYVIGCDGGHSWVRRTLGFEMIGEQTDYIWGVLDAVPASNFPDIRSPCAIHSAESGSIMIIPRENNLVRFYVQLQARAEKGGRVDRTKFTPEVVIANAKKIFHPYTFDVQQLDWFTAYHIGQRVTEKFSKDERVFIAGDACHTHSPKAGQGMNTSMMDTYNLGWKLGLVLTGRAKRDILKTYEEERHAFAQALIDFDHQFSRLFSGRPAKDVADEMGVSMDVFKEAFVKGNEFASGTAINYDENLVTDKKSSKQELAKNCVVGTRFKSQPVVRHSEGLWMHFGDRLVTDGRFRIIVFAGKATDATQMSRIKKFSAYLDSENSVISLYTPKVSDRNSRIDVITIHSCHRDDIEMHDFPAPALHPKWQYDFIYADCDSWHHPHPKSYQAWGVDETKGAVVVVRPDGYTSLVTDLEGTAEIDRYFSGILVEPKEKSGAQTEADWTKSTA
Put plainly: enzyme assay, catechol production. In kind it is cell-based. To be noted: E. coli-expressed enzyme; purification not told in main text.

T1 sequence (A0AA82WP17 entry or part of it F265Y): as the sequence (A0AA82WP17 entry or part of it D99N) above, with N99D, F265Y counted along it

For the compound `CC(C)=CCc1cc(CO)ccc1O` [compound 6, 3-prenyl-4-hydroxybenzylalcohol], the “% of wild-type activity (production of 7)” value on VibO [1] was 22%; on VibO [2] it was 10%; at VibO [3], 16%.
Consider `Oc1ccccc1` [phenol], for which, at PHHY, the “enzyme assay, catechol production” value is listed as “significant production of catechol was observed for PHHY incubating with phenol”.
